According to patent US10280156B2, “Heteroaromatic chalcone derivatives and their medical use” (Medizinische Universität Wien, priority 2014, dated 2019):

Key:
OCI-Ly7 = assay: Viability test on OCI-Ly7 cells, 48 h; type: cell-based, human; conditions: Homo sapiens, OCI-Ly7, 48 h, 48 h incubation; nd = no significant cytotoxic activity up to 100 μM
Protocol: (§1) JURKAT and CCRF-CEM (T-cell acute lymphoblastic leukemia), HL60 and K562 representing acute and chronic myeloid leukemia, respectively, the chronic lymphocytic leukemia cell line MEC-1, and the diffuse large B-cell lymphoma cell line U-2940 were cultured in Gibco RPMI 1640+GlutaMAX (Life Technologies, Carlsbad, Calif., USA) supplemented with 10% fetal bovine serum gold (FBS gold; PAA Laboratories, Pasching, Austria) and 1% PenStrep (100 U/ml penicillin and 100 μg/ml streptomycin; PAA Laboratories), and maintained at 37° C. in humidified atmosphere with 5% CO2. The diffuse large B-cell lymphoma cell line OCI-LY7 was cultured in Gibco IMDM+GlutaMAX and 25 mM HEPES (Life Technologies) containing 20% FBS gold and 1% PenStrep.
(§2) All experiments with hematological cell lines were done using phenol red-free RPMI 1640+L-glutamine (PAA Laboratories) supplemented with 1% PenStrep and 10% FBS gold, except experiments with OCI-Ly7 which were carried out in Gibco IMEM+GlutaMAX and 25 mM HEPES containing 20% FBS gold and 1% PenStrep. Cells were incubated in triplicates with increasing concentrations of the compounds for 48 h, changes in viability were determined using the cell proliferation and cytotoxicity assays EZ4U (Biomedica Group, Austria) and CellTiter-Blue Cell Viability Assay (Promega, Madison, Wis., USA) following instructions of the manufacturers. IC50 values were calculated from two independent experiments using GraphPad Prism 5 software.
(§3) Initially, compounds were biologically tested in six concentration steps (0.1 μM; 1 μM; 5 μM; 10 μM; 50 μM; and 100 μM) using the CellTiter-Blue Cell Viability Assay (Promega, Madison, Wis., USA) and an incubation time of 48 hours. […] IC50 values were calculated from at least two independent experiments with 3 replicates each. In order to evaluate the biologic activity of the new compounds, cytotoxicity was compared to that of fludarabine, an already approved drug for the treatment of various B-cell malignancies. […] Differences in IC50 values for the different cell types can be explained by the biological and genetic particularities of each subtype of B-cell Non-Hodgkin lymphoma (Stacchini A et al. Leukemia Res 1999, 23, 127-136; Sambade C et al. Int J Cancer 2006, 118, 555-563; Chang H et al. Leukemia lymphoma 1995, 19, 165-171; Tweeddale M E et al. Blood 1987, 69, 1307-1314; Tweeddale M et al. Blood 1989, 74, 572-578).

MEC1 = assay: Viability test (CellTiter-Blue/EZ4U) on MEC1 cells, 48 h; type: cell-based, human; conditions: Homo sapiens, MEC1, 48 h, 48 h incubation; nd = no significant cytotoxic activity up to 100 μM
Protocol: as §1, §2, §3

M2-10B4 = assay: Viability test on mouse fibroblast cell line M2-10B4, 48 h; type: cell-based; conditions: 48 h incubation, mouse fibroblast cell line
Protocol: as §2
Structurally seen, the small molecule compound 1 represents a typical chalcone scaffold. It is characterized by an ortho-ethoxy-substituted phenyl part as ring A and a 2-naphthyl moiety symbolizing ring B. The focus of the present study was to guide the systematic identification of a growth inhibitor with specificity to neoplastic cells, as cytotoxicity towards healthy cells is mostly associated with adverse effects, which can be related to morbidity and mortality of the patient (Milligan D W et al. Brit J Haematol 2006, 135, 450-474). To discriminate in vitro between structural elements necessary for potent cytotoxicity towards tumor cells which, at the same time, clearly show less activity on normal cells, the compounds were additionally tested on the murine bone marrow fibroblast cell line M2-10B4. This cell line is regularly used as feeder layer when cultured with patient cells providing additional support and survival signals in particular in drug screens (Kurtova A V et al. Blood 2009, 114, 4441-4450).
as §3

U-2940 = assay: Viability test on U-2940 cells, 48 h; type: cell-based, human; conditions: 48 h incubation, nd = no significant cytotoxic activity up to 100 μM
Protocol: as §1, §2, §3

| SMILES | IC50 (OCI-Ly7) [µM] | IC50 (MEC1) [µM] | IC50 (M2-10B4; Mus musculus, M210B4, 48 h) [µM] | IC50 (U-2940) [µM] | IC50 (U-2940; Homo sapiens, U-2940, 48 h) [µM] | melting point [°C] | IC50 (M2-10B4) [µM] |
| --- | --- | --- | --- | --- | --- | --- | --- |
| CCOc1ccccc1C(=O)/C=C/c1ccc2ccccc2c1 [Compound 1, 3-(2-Napthyl)-1-(2-ethoxyphenyl)-2-propen-1-one] | 0.06 | 0.06 | 7.8 | 4.43 | 2.43 | 96 to 97 | – |
| CC(C)Oc1ccccc1C(=O)/C=C/c1ccc2ccccc2c1 [Compound 5] | 0.15 | 1.17 | > 100 | – | 11.1 | 82 to 85 | – |
| CCOc1ccccc1C(=O)/C=C/c1ccc2c(c1)OCO2 [Compound 9, 3-(1,3-Benzodioxol-5-yl)-1-(2-ethoxyphenyl)-2-propen-1-one] | 0.13 | 1.1 | > 100 | – | 9.49 | 65 to 70 | – |
| CCOc1ccccc1C(=O)/C=C/c1cccc2ccccc12 [Compound 10, 1-(2-Ethoxyphenyl)-3-(1-naphthyl)-2-propen-1-one] | 1.48 | 1.9 | 14.1 | – | 7.37 | 109 to 110 | 17.1 |
| CCOc1ccccc1C(=O)/C=C/c1ccc2sccc2c1 [Compound 13, 3-(5-Benzo[b]thienyl)-1-(2-ethoxyphenyl)-2-propen-1-one] | 0.34 | 0.34 | 21.1 | – | 9.05 | 104 to 106 | – |
